Reference: ChEMBL document CHEMBL1201862, “PubChem BioAssay data set” (2004)
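Cultured in 96-well plates, cells were exposed to test compound for 48 hours across five concentrations. GI50 is the concentration that inhibits growth by half.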 The source made the active and inactive calls. Cut-off read from the data, not from the text of the source: active = GI50 up to about 1.1 µM and inactive = higher.

Assays:
Assay in all cases: NCI tumour cell line growth inhibition, 48 h
MDA-MB-435 = test system: MDA-MB-435
SF-295 = test system: SF-295
SK-MEL-2 = test system: SK-MEL-2
IGROV-1 = test system: IGROV-1
NCI-H23 = test system: NCI-H23
OVCAR-8 = test system: OVCAR-8
786-0 = test system: 786-0
SK-MEL-5 = test system: SK-MEL-5
HT-29 = test system: HT-29
HCT-15 = test system: HCT-15
Malme-3M = test system: Malme-3M
KM12 = test system: KM12
NCI-H460 = test system: NCI-H460
DU-145 = test system: DU-145
HCC 2998 = test system: HCC 2998
MCF7 = test system: MCF7
SW-620 = test system: SW-620
MDA-MB-231 = test system: MDA-MB-231
U-251 = test system: U-251
A498 = test system: A498

SMILES | GI50 (MDA-MB-435) | GI50 (SF-295) | GI50 (SK-MEL-2) | GI50 (IGROV-1) | GI50 (NCI-H23) | GI50 (OVCAR-8) | GI50 (786-0) | GI50 (SK-MEL-5) | GI50 (HT-29) | GI50 (HCT-15) | GI50 (Malme-3M) | GI50 (KM12) | GI50 (NCI-H460) | GI50 (DU-145) | GI50 (HCC 2998) | GI50 (MCF7) | GI50 (SW-620) | GI50 (MDA-MB-231) | GI50 (U-251) | GI50 (A498)
Cc1ccc(/C=N\NC(=O)c2ccncc2)s1 | > 100 µM (inactive) | > 100 µM (inactive) | > 100 µM (inactive) | > 100 µM (inactive) | > 100 µM (inactive) | > 100 µM (inactive) | > 100 µM (inactive) | > 100 µM (inactive) | > 100 µM (inactive) | > 100 µM | > 100 µM (inactive) | > 100 µM (inactive) | > 100 µM (inactive) | > 100 µM (inactive) | > 100 µM (inactive) | > 100 µM (inactive) | > 100 µM (inactive) | > 100 µM (inactive) | > 100 µM (inactive) | > 100 µM (inactive)
CCOC(=O)NC(Nc1ccc(S(=O)(=O)Nc2nc(C)cc(C)n2)cc1)(C(=O)OCC)C(F)(F)F (stereo not given) | > 100 µM (inactive) | > 100 µM (inactive) | > 100 µM (inactive) | > 100 µM (inactive) | > 100 µM (inactive) | > 100 µM (inactive) | > 100 µM (inactive) | > 100 µM (inactive) | > 100 µM (inactive) | > 100 µM | > 100 µM (inactive) | > 100 µM (inactive) | > 100 µM (inactive) | > 100 µM (inactive) | > 100 µM (inactive) | > 100 µM (inactive) | > 100 µM (inactive) | > 100 µM (inactive) | > 100 µM (inactive) | > 100 µM (inactive)
COc1cccc(/N=N/C(=N\NC(=O)c2ccc(C)cc2)c2ccc(N(CCC#N)CCC#N)cc2C)c1 | 64.3 µM (inactive) | 85.7 µM (inactive) | > 100 µM (inactive) | > 100 µM (inactive) | > 100 µM (inactive) | 35.1 µM (inactive) | > 100 µM (inactive) | > 100 µM (inactive) | > 100 µM (inactive) | > 100 µM | > 100 µM (inactive) | 73.5 µM (inactive) | > 100 µM (inactive) | > 100 µM (inactive) | > 100 µM (inactive) | 32.1 µM (inactive) | > 100 µM (inactive) | 63.1 µM (inactive) | > 100 µM (inactive) | 44.3 µM (inactive)
CCCCNc1nc(NC2OCC(OC(C)=O)C(OC(C)=O)C2OC(C)=O)c(N=O)c(=O)n1C (stereo not given) | > 10 µM (inactive) | > 10 µM (inactive) | > 10 µM (inactive) | > 10 µM (inactive) | > 10 µM (inactive) | > 10 µM (inactive) | > 10 µM (inactive) | > 10 µM (inactive) | > 10 µM (inactive) | > 10 µM | > 10 µM (inactive) | > 10 µM (inactive) | > 10 µM (inactive) | > 10 µM (inactive) | > 10 µM (inactive) | > 10 µM (inactive) | > 10 µM (inactive) | > 10 µM (inactive) | > 10 µM (inactive) | > 10 µM (inactive)
O=[N+]([O-])c1cc(C(F)(F)F)cc2n[se]nc12 | 2.33 µM (inactive) | 12.5 µM (inactive) | 8.38 µM (inactive) | 5.07 µM (inactive) | 3.93 µM (inactive) | 1.97 µM (inactive) | 2.21 µM (inactive) | 3.24 µM (inactive) | 7.29 µM (inactive) | 2.28 µM | 1.79 µM (inactive) | 9.33 µM (inactive) | 6.22 µM (inactive) | 3.21 µM (inactive) | 3.98 µM (inactive) | 1.97 µM (inactive) | 1.45 µM (inactive) | 2.13 µM (inactive) | 15.1 µM (inactive) | 16.8 µM (inactive)
